# pIC50: −log10 of the molar value. Active and inactive are the calls of the source. No cut-off for these calls is given here.
# What was measured:
# [1] = target: T1, Histone deacetylase 1 (Homo sapiens, UniProt Q13547); test: Inhibition of HDAC1 in human Jurkat cells assessed as increase in acetyl-alpha-tubulin level at IC50 incubated for 48 hrs by Western blot analysis; assay type: cell-based
# [2] = Stability in mouse liver microsome assessed as half life at 1 uM measured for 60 mins by LC-MS/MS analysis; assay type: ADME; details: liver microsomes
# [3] = system: U-937; test: Inhibition of cell proliferation of human U-937 cells assessed as reduction in Ki-67 expression at IC50 measured after 48 hrs by flow cytometry; assay type: functional, cell-based
# [4] = target: T2, Protein deacetylase HDAC6 (Homo sapiens) (UniProt Q9UBN7); test: Inhibition of HDAC6 in human Jurkat cells assessed as increase in acetyl-histone H3 level at IC50 incubated for 48 hrs by Western blot analysis; assay type: cell-based
# T2 sequence (whole entry): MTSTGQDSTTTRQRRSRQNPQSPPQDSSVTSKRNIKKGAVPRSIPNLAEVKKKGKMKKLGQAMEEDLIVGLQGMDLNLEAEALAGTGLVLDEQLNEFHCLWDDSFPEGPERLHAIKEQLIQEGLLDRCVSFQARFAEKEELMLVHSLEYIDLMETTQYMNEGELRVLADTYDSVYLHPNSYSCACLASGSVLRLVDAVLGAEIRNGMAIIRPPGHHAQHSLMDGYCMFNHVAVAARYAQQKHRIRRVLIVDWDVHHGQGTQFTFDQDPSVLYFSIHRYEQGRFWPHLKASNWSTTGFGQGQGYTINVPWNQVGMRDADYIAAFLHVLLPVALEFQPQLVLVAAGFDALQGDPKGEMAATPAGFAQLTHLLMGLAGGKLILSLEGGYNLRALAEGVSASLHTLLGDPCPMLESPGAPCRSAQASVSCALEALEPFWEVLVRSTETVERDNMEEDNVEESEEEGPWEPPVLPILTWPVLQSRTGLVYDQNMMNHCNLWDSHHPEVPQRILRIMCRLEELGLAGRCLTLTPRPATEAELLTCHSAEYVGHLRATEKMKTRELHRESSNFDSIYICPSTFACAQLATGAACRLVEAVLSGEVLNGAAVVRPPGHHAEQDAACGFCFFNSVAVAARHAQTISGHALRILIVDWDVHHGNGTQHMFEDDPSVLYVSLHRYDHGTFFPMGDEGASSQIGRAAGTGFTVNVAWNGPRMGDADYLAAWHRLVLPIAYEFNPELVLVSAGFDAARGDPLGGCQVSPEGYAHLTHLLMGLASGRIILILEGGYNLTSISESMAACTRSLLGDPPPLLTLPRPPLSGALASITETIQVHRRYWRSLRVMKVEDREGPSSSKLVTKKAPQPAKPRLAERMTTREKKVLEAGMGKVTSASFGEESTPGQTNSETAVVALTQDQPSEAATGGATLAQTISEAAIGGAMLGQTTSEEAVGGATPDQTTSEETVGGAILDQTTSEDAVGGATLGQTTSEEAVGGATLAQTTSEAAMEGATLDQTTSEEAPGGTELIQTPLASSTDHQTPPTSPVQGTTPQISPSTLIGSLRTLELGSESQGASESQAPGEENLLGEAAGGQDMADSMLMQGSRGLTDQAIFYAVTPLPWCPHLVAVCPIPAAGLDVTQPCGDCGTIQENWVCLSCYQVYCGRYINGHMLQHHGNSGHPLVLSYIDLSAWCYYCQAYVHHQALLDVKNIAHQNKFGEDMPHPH
# [5] = target: T1, Histone deacetylase 1; test: Inhibition of HDAC1 in human U-937 cells assessed as increase in acetyl-histone H3 level at IC50 incubated for 48 hrs by Western blot analysis; assay type: cell-based
# [6] = target: T1, Histone deacetylase 1; test: Inhibition of full-length recombinant human HDAC1 expressed in baculovirus infected Sf9 cells using RHKK(Ac)AMC as substrate preincubated for 5 to 10 mins followed by substrate addition measured after 2 hrs by fluorescence based assay
# [7] = system: NAMALVA; test: cells; details: Homo sapiens
# [8] = system: MCF7; test: cells; assay type: functional, cell-based; details: Homo sapiens
# [9] = Selectivity index, ratio of IC50 for human MCF7 cells to IC50 for human Jurkat cells; assay type: functional
# [10] = Selectivity index, ratio of IC50 for human leukocytes cells to IC50 for human NAMALVA cells; assay type: functional
# [11] = Selectivity index, ratio of IC50 for human HCT-116 cells to IC50 for human Jurkat cells; assay type: functional
# [12] = target: T1, Histone deacetylase 1; test: Inhibition of HDAC1 in human NAMALVA cells assessed as increase in acetyl-alpha-tubulin level at IC50 incubated for 48 hrs by Western blot analysis; assay type: cell-based
# [13] = target: T1, Histone deacetylase 1; test: Inhibition of HDAC1 in human U-937 cells assessed as increase in acetyl-alpha-tubulin level at IC50 incubated for 48 hrs by Western blot analysis; assay type: cell-based
# [14] = system: NAMALVA; test: Potency index, ratio of Vorinostat IC50 to test compound IC50 for human NAMALVA cells assessed as cell growth inhibition incubated for 24 to 72 hrs by MTT assay; assay type: functional; details: time 24-72 hrs
# [15] = target: T1, Histone deacetylase 1; test: Inhibition of HDAC1 in human NAMALVA cells assessed as increase in acetyl-histone H3 level at IC50 incubated for 48 hrs by Western blot analysis; assay type: cell-based
# [16] = target: T2, Protein deacetylase HDAC6 (Homo sapiens); test: Inhibition of HDAC6 in human NAMALVA cells assessed as increase in acetyl-histone H3 level at IC50 incubated for 48 hrs by Western blot analysis; assay type: cell-based
# [17] = target: T3, Protein deacetylase HDAC6 (Homo sapiens, UniProt Q9UBN7); test: Inhibition of full-length recombinant human HDAC6 expressed in baculovirus infected Sf9 cells using RHKK(Ac)AMC as substrate preincubated for 5 to 10 mins followed by substrate addition measured after 2 hrs by fluorescence based assay
# T3 sequence (Q9UBN7 whole entry): T2 sequence (whole entry)
# [18] = Selectivity index, ratio of IC50 for human leukocytes cells to IC50 for human Jurkat cells; assay type: functional
# [19] = system: Jurkat; test: Potency index, ratio of Vorinostat IC50 to test compound IC50 for human Jurkat cells assessed as cell growth inhibition incubated for 24 to 72 hrs by MTT assay; assay type: functional; details: time 24-72 hrs
# [20] = target: T2, Protein deacetylase HDAC6 (Homo sapiens); test: Inhibition of HDAC6 in human U-937 cells assessed as increase in acetyl-alpha-tubulin level at IC50 incubated for 48 hrs by Western blot analysis; assay type: cell-based
# [21] = Selectivity index, ratio of IC50 for human HCT-116 cells to IC50 for human NAMALVA cells; assay type: functional
# [22] = Stability in human liver microsome assessed as intrinsic clearance at 1 uM measured for 60 mins by LC-MS/MS analysis; assay type: ADME; details: liver microsomes, read-out: CLH
# [23] = system: Jurkat; test: cells; details: Homo sapiens
# [24] = target: T2, Protein deacetylase HDAC6 (Homo sapiens); test: Inhibition of HDAC6 in human Jurkat cells assessed as increase in acetyl-alpha-tubulin level at IC50 incubated for 48 hrs by Western blot analysis; assay type: cell-based
# [25] = Stability in mouse liver microsome assessed as intrinsic clearance at 1 uM measured for 60 mins by LC-MS/MS analysis; assay type: ADME; details: liver microsomes, read-out: CLH
# T1 sequence (Q13547 whole entry): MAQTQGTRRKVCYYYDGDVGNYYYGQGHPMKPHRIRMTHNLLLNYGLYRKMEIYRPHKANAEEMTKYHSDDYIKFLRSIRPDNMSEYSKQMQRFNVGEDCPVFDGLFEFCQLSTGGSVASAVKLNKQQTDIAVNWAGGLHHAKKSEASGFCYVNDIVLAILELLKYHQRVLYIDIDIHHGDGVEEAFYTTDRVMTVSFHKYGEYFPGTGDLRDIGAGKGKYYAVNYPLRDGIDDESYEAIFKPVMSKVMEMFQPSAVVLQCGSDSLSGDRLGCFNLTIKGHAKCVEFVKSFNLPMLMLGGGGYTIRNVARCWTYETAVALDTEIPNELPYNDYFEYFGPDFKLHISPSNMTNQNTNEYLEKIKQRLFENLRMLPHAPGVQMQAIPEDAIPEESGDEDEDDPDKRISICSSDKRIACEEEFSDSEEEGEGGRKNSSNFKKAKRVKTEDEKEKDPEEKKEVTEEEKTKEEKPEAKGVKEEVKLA
Structure (SMILES),inhibition [1],half-life at 1 µM [2] [min],inhibition [3],inhibition [4],inhibition [5],pIC50 [6],pIC50 [7],pIC50 [8],Ratio IC50 [9],Ratio IC50 [10],Ratio IC50 [11],inhibition [12],inhibition [13],Ratio IC50 [14],inhibition [15],inhibition [16],pIC50 [17],Ratio IC50 [18],Ratio IC50 [19],inhibition [20],also measured
O=C(NO)c1ccc(Cn2cnc3c(Nc4ccc(F)c(Cl)c4)ncnc32)cc1,Active,35,Active,Active,Active,6.72,7.40,5.03,83,>=100,83,Active,Active,<=10,Active,Active,6.47,>=100,<=10,Active,Ratio IC50 [21]: 83; microsomal CLint at 1 µM [22]: < 6 µL/min/mg; pIC50 [23]: 7.70; inhibition [24]: Active; microsomal CLint at 1 µM [25]: 20 µL/min/mg
COc1ccc(Nc2ncnc3c2ncn3Cc2ccc(C(=O)NO)cc2)cc1,Active,50,Active,Active,Active,6.93,7.00,4.71,83,>=100,83,Active,Active,<=10,Active,Active,6.63,>=100,<=10,Active,Ratio IC50 [21]: 83; microsomal CLint at 1 µM [22]: < 6 µL/min/mg; pIC50 [23]: 7.30; inhibition [24]: Active; microsomal CLint at 1 µM [25]: 14 µL/min/mg

# Source: ChEMBL document CHEMBL5532651, “HDAC specificity and kinase off-targeting by purine-benzohydroxamate anti-hematological tumor agents” (Eur J Med Chem, 2024)
